Test results published in patent US7803801B2, “Aminopyridine compounds having Syk inhibitory activity” (Japan Tobacco, Inc., priority 2005, dated 2010).
Counter-ions that a name gives are not always drawn.

Key:
[1] = system: cultured human mast cells; assay: Degranulation inhibition test using cultured human mast cells (IgE cross-linking, β-Hexosaminidase release); format: cell-based; details: Mast cell; Tables 1-x, compounds A; cultured human mast cells; read-out: human degranulation ave. IC50
In short: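 CD34+ cord-blood cells cultured ≥8 weeks with SCF/IL-6/IL-3; FcεRI primed 5 days with rhIL-4 (1 ng/mL) and hIgE (0.5 μg/mL). Compound (0.1% DMSO) preincubated 10 min at 37 °C, then anti-IgE (final 10 μg/mL) 30 min; released β-hexosaminidase read at 405 nm versus total lysate, IC50 (M).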

[2] = molecular target: GST-Syk Full Protein (human) (Homo sapiens, UniProt P43405); assay: Syk kinase inhibition test (HTRF method); format: biochemical; details: Tables 1-x, compounds A; read-out: sykHTRF ave IC50
In short: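 Human GST-Syk full-length (6.4 nM) phosphorylated biotin-EDPDYEWPSA-NH2 (250 nM) with 100 μM ATP in HEPES pH 7.0/MgCl2 buffer, 2% DMSO, 30 min at room temperature. EDTA stop, then HTRF detection (streptavidin-XL665, Eu anti-phosphotyrosine) after 1 h; 665/620 ratio read.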

| Compound | IC50 [1] | IC50 [2] |
| --- | --- | --- |
| CO[C@@H]1CCN(c2ncc(-c3cccc(Nc4cc(C)ccn4)n3)s2)C1 [Compound A-490, N-{6-[2-((R)-3-methoxypyrrolidin-1-yl)thiazol-5-yl]pyridin-2-yl}-N-(4-methylpyridin-2-yl)amine] | 100 to 1000 nM | < 100 nM |
| Cc1ccnc(Nc2cccc(-c3cnc(N4CCCC(COCC(=O)O)C4)s3)n2)c1 (centres unmarked) [Compound A-497, (1-{5-[6-(4-methylpyridin-2-ylamino)pyridin-2-yl]thiazol-2-yl}piperidin-3-ylmethoxy)acetic acid dihydrochloride] | > 1000 nM | < 100 nM |
| Cc1ccnc(Nc2cccc(-c3cnc(N4CCCC(CO)C4)s3)n2)c1 (centres unmarked) [Compound A-498, (1-{5-[6-(4-methylpyridin-2-ylamino)pyridin-2-yl]thiazol-2-yl}piperidin-3-yl)methanol] | 100 to 1000 nM | < 100 nM |
| Cc1ccnc(Nc2cccc(-c3cnc(N4CCCC(COCC(N)=O)C4)s3)n2)c1 (centres unmarked) [Compound A-499, 2-(1-{5-[6-(4-methylpyridin-2-ylamino)pyridin-2-yl]thiazol-2-yl}piperidin-3-ylmethoxy)acetamide] | 100 to 1000 nM | < 100 nM |
| Cc1ccnc(Nc2cccc(-c3cnc(N4CCC(C)(C(N)=O)CC4)s3)n2)c1 [Compound A-500, 4-methyl-1-{5-[6-(4-methylpyridin-2-ylamino)pyridin-2-yl]thiazol-2-yl}piperidine-4-carboxamide] | 100 to 1000 nM | < 100 nM |
| CNC(=O)C1(C)CCN(c2ncc(-c3cccc(Nc4cc(C)ccn4)n3)s2)CC1 [Compound A-501, N-methyl-4-methyl-1-{5-[6-(4-methylpyridin-2-ylamino)pyridin-2-yl]thiazol-2-yl}piperidine-4-carboxamide] | 100 to 1000 nM | < 100 nM |
| CNC(=O)COCC1CCCN(c2ncc(-c3cccc(Nc4cc(C)ccn4)n3)s2)C1 (centres unmarked) [Compound A-502, N-methyl-2-(1-{5-[6-(4-methylpyridin-2-ylamino)pyridin-2-yl]thiazol-2-yl}piperidin-3-ylmethoxy)acetamide] | 100 to 1000 nM | < 100 nM |
| Cc1ccnc(Nc2cccc(-c3cnc(N4CCC(C)(C(=O)NCCO)CC4)s3)n2)c1 [Compound A-503, N-(2-hydroxyethyl)-4-methyl-1-{5-[6-(4-methylpyridin-2-ylamino)pyridin-2-yl]thiazol-2-yl}-piperidine-4-carboxamide] | 100 to 1000 nM | < 100 nM |
| Cc1ccnc(Nc2cccc(-c3cnc(N4CCC(CC(N)=O)CC4)s3)n2)c1 [Compound A-504, 2-(1-{5-[6-(4-methylpyridin-2-ylamino)pyridin-2-yl]thiazol-2-yl}piperidin-4-yl)acetamide] | 100 to 1000 nM | < 100 nM |
| CNC(=O)CC1CCN(c2ncc(-c3cccc(Nc4cc(C)ccn4)n3)s2)CC1 [Compound A-505, N-methyl-2-(1-{5-[6-(4-methylpyridin-2-ylamino)pyridin-2-yl]thiazol-2-yl}piperidin-4-yl)acetamide] | 100 to 1000 nM | < 100 nM |
| Cc1ccnc(Nc2cccc(-c3cnc(N4CCC(CC(=O)NCCO)CC4)s3)n2)c1 [Compound A-506, N-(2-hydroxyethyl)-2-(1-{5-[6-(4-methylpyridin-2-ylamino)pyridin-2-yl]thiazol-2-yl}piperidin-4-yl)acetamide] | 100 to 1000 nM | < 100 nM |
| CC(=O)NCCN(C)c1ncc(-c2cccc(Nc3cc(C)ccn3)n2)s1 [Compound A-508, N-[2-(N′-methyl-N′-{5-[6-(4-methylpyridin-2-ylamino)pyridin-2-yl]thiazol-2-yl}amino)ethyl]acetamide] | 100 to 1000 nM | < 100 nM |
| Cc1ccnc(Nc2cccc(-c3cnc(N(C)CCNC(=O)CO)s3)n2)c1 [Compound A-509, 2-hydroxy-N-[2-(N′-methyl-{5-[6-(4-methylpyridin-2-ylamino)pyridin-2-yl]thiazol-2-yl}amino)ethyl]acetamide] | 100 to 1000 nM | < 100 nM |
| Cc1ccnc(Nc2cccc(-c3cnc(N(C)C4CCN(C(=O)c5ccc(O)cc5)CC4)s3)n2)c1 [Compound A-513, (4-hydroxyphenyl)-[4-(N-methyl-N-{5-[6-(4-methylpyridin-2-ylamino)pyridin-2-yl]thiazol-2-yl}amino)piperidin-1-yl]methanone] | 100 to 1000 nM | < 100 nM |
| CC(=O)N1CCC(Nc2ncc(-c3cccc(Nc4cc(C)ccn4)n3)s2)CC1 [Compound A-514, 1-(4-{5-[6-(4-methylpyridin-2-ylamino)pyridin-2-yl]thiazol-2-ylamino}piperidin-1-yl)ethanone] | 100 to 1000 nM | < 100 nM |
| CC(=O)N1CCC(N(c2ncc(-c3cccc(Nc4cc(C)ccn4)n3)s2)C(C)C)CC1 [Compound A-515, 1-[4-(N-isopropyl-N-{5-[6-(4-methylpyridin-2-ylamino)pyridin-2-yl]thiazol-2-yl}amino)piperidin-1-yl]ethanone] | > 1000 nM | < 100 nM |

| Compound | IC50 [1] | IC50 [2] |
| --- | --- | --- |
| CNC(=O)CO[C@@H]1CCN(c2ncc(-c3cccc(Nc4cc(C)ccn4)n3)s2)C1 [Compound A-516, N-methyl-2-((R)-1-{5-[6-(4-methylpyridin-2-ylamino)pyridin-2-yl]thiazol-2-yl}pyrrolidin-3-yloxy)acetamide] | 100 to 1000 nM | < 100 nM |
| COc1ccnc(Nc2cccc(-c3cnc(N4CCC(C(N)=O)CC4)s3)n2)c1 [Compound A-517, 1-{5-[6-(4-methoxypyridin-2-ylamino)pyridin-2-yl]thiazol-2-yl}piperidine-4-carboxamide] | 100 to 1000 nM | < 100 nM |
| NC(=O)C1CCN(c2ncc(-c3cccc(Nc4cc(Cl)ccn4)n3)s2)CC1 [Compound A-518, 1-{5-[6-(4-chloropyridin-2-ylamino)pyridin-2-yl]thiazol-2-yl}piperidine-4-carboxamide] | < 100 nM | < 100 nM |
| Cc1ccnc(Nc2cccc(-c3cnc(N(C)CCO)s3)n2)c1 [Compound A-519, 2-(N-methyl-N-{5-[6-(4-methylpyridin-2-ylamino)pyridin-2-yl]thiazol-2-yl}amino)ethanol] | < 100 nM | < 100 nM |
| COCCN(C)c1ncc(-c2cccc(Nc3cc(C)ccn3)n2)s1 [Compound A-520, N-(2-methoxyethyl)-N-methyl-N-{5-[6-(4-methylpyridin-2-ylamino)pyridin-2-yl]thiazol-2-yl}amine] | 100 to 1000 nM | < 100 nM |
| CC(=O)N1CCC(N(CCNS(C)(=O)=O)c2ncc(-c3cccc(Nc4cc(C)ccn4)n3)s2)CC1 [Compound A-524, N-[2-(N′-(1-acetylpiperidin-4-yl)-N′-{5-[6-(4-methylpyridin-2-ylamino)pyridin-2-yl]thiazol-2-yl}amino)ethyl]methanesulfonamide] | > 1000 nM | < 100 nM |
| CC(=O)N1CCC(N(CCO)c2ncc(-c3cccc(Nc4cc(C)ccn4)n3)s2)CC1 [Compound A-525, 1-[4-(N-(2-hydroxyethyl)-N-{5-[6-(4-methylpyridin-2-ylamino)pyridin-2-yl]thiazol-2-yl}amino)piperidin-1-yl]ethanone] | 100 to 1000 nM | < 100 nM |
| COCCN(c1ncc(-c2cccc(Nc3cc(C)ccn3)n2)s1)C1CCN(C(C)=O)CC1 [Compound A-526, 1-[4-(N-(2-methoxyethyl)-N-{5-[6-(4-methylpyridin-2-ylamino)pyridin-2-yl]thiazol-2-yl}amino)piperidin-1-yl]ethanone] | 100 to 1000 nM | < 100 nM |
| Cc1ccnc(Nc2cccc(-c3cnc(N4CCC[C@H]4C(N)=O)s3)n2)c1 [Compound A-528, (S)-1-{5-[6-(4-methylpyridin-2-ylamino)pyridin-2-yl]thiazol-2-yl}pyrrolidine-2-carboxamide] | < 100 nM | < 100 nM |
| Cc1ccnc(Nc2cccc(-c3cnc(N4CCC[C@H]4C(=O)NCC(F)(F)F)s3)n2)c1 [Compound A-530, N-(2,2,2-trifluoroethyl)-(S)-1-{5-[6-(4-methylpyridin-2-ylamino)pyridin-2-yl]thiazol-2-yl}pyrrolidine-2-carboxamide] | 100 to 1000 nM | < 100 nM |
| Cc1ccnc(Nc2cccc(-c3cnc(N4CCC[C@@H](C(=O)O)C4)s3)n2)c1 [Compound A-531, (R)-1-{5-[6-(4-methylpyridin-2-ylamino)pyridin-2-yl]thiazol-2-yl}piperidine-3-carboxylic acid] | 100 to 1000 nM | < 100 nM |
| Cc1ccnc(Nc2cccc(-c3cnc(N4CCC[C@@H](CO)C4)s3)n2)c1 [Compound A-532, ((R)-1-{5-[6-(4-methylpyridin-2-ylamino)pyridin-2-yl]thiazol-2-yl}piperidin-3-yl)methanol] | < 100 nM | < 100 nM |
| Cc1ccnc(Nc2cccc(-c3cnc(N4CCC[C@@H](C(N)=O)C4)s3)n2)c1 [Compound A-533, (R)-1-{5-[6-(4-methylpyridin-2-ylamino)pyridin-2-yl]thiazol-2-yl}piperidine-3-carboxamide] | 100 to 1000 nM | < 100 nM |
| CCN(c1ncc(-c2cccc(Nc3cc(C)ccn3)n2)s1)C1CCN(C(C)=O)CC1 [Compound A-534, 1-[4-(N-ethyl-N-{5-[6-(4-methylpyridin-2-ylamino)pyridin-2-yl]thiazol-2-yl}amino)piperidin-1-yl]ethanone] | 100 to 1000 nM | < 100 nM |
| CC(=O)N1CCC(N(CC(F)(F)F)c2ncc(-c3cccc(Nc4cc(C)ccn4)n3)s2)CC1 [Compound A-535, 1-{4-[N-{5-[6-(4-methylpyridin-2-ylamino)pyridin-2-yl]thiazol-2-yl}-N-(2,2,2-trifluoroethyl)amino]piperidin-1-yl}ethanone] | > 1000 nM | < 100 nM |
